Data from ChEMBL document CHEMBL1201862, “PubChem BioAssay data set” (2004).
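Values below derive from 48-hour exposures of cells grown in 96-well plates, with endpoints linearly interpolated between the two concentrations bracketing the appropriate inhibition level. The concentration for 50% growth inhibition is given as GI50.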 The source made the active and inactive calls. Rule as the data show it: active = GI50 up to about 1.1 µM and inactive = higher.

Tests used:
Assay in all cases: inhibition of tumour cell growth, NCI panel, 48 h
786-0 = test system: 786-0
A498 = test system: A498
A549 = test system: A549
ACHN = test system: ACHN
CAKI-1 = test system: CAKI-1
CCRF-CEM = test system: CCRF-CEM
COLO 205 = test system: COLO 205
DLD-1 = test system: DLD-1
DMS-114 = test system: DMS-114
DMS-273 = test system: DMS-273
EKVX = test system: EKVX
HCC 2998 = test system: HCC 2998
HCT-116 = test system: HCT-116
HCT-15 = test system: HCT-15
HL-60 = test system: HL-60
HOP-62 = test system: HOP-62
HOP-92 = test system: HOP-92
HT-29 = test system: HT-29
IGROV-1 = test system: IGROV-1
K562 = test system: K562
KM-20L2 = test system: KM-20L2
KM12 = test system: KM12
LOX IMVI = test system: LOX IMVI
LXFL 529 = test system: LXFL 529
M14 = test system: M14
M19-MEL = test system: M19-MEL
MOLT-4 = test system: MOLT-4
Malme-3M = test system: Malme-3M
NCI-H23 = test system: NCI-H23
NCI-H460 = test system: NCI-H460
NCI-H522 = test system: NCI-H522
OVCAR-3 = test system: OVCAR-3
OVCAR-4 = test system: OVCAR-4
OVCAR-5 = test system: OVCAR-5
OVCAR-8 = test system: OVCAR-8
RPMI-8226 = test system: RPMI-8226
RXF 631 = test system: RXF 631
SF-268 = test system: SF-268
SF-295 = test system: SF-295
SF-539 = test system: SF-539
SK-MEL-28 = test system: SK-MEL-28
SK-MEL-2 = test system: SK-MEL-2
SK-MEL-5 = test system: SK-MEL-5
SK-OV-3 = test system: SK-OV-3
SN12C = test system: SN12C
SNB-19 = test system: SNB-19
SNB-75 = test system: SNB-75
SNB-78 = test system: SNB-78
SW-620 = test system: SW-620
TK-10 = test system: TK-10
U-251 = test system: U-251
UACC-257 = test system: UACC-257
UACC-62 = test system: UACC-62
UO-31 = test system: UO-31
XF498 = test system: XF498
HOP-18 = test system: HOP-18
NCI-H226 = test system: NCI-H226
RXF 393 = test system: RXF 393
SR = test system: SR

For `CC(C)N(C(=O)C12C3C4C5C3C1(C(=O)O)C5C42)C(C)C` (configuration not stated), the GI50 (786-0) was > 100 µM (inactive), the GI50 (A498) was > 100 µM (inactive) and the GI50 (A549) was > 100 µM (inactive). For the same compound, the GI50 (ACHN) was > 100 µM (inactive), the GI50 (CAKI-1) was > 100 µM (inactive) and the GI50 (CCRF-CEM) was > 100 µM (inactive). For the same compound, the GI50 (COLO 205) was > 100 µM (inactive), the GI50 (DLD-1) was > 100 µM (inactive) and the GI50 (DMS-114) was > 100 µM (inactive). The GI50 (DMS-273) was > 100 µM (inactive), the GI50 (EKVX) was > 100 µM (inactive) and the GI50 (HCC 2998) was > 100 µM (inactive). For the same compound, the GI50 (HCT-116) was > 100 µM (inactive), the GI50 (HCT-15) was > 100 µM and the GI50 (HL-60) was > 100 µM (inactive). For the same compound, the GI50 (HOP-62) was > 100 µM (inactive), the GI50 (HOP-92) was > 100 µM (inactive) and the GI50 (HT-29) was > 100 µM (inactive). For the same compound, the GI50 (IGROV-1) was > 100 µM (inactive), the GI50 (K562) was > 100 µM (inactive) and the GI50 (KM-20L2) was > 100 µM (inactive). The GI50 (KM12) was > 100 µM (inactive), the GI50 (LOX IMVI) was > 100 µM (inactive) and the GI50 (LXFL 529) was > 100 µM (inactive). The GI50 (M14) was > 100 µM (inactive), the GI50 (M19-MEL) was > 100 µM (inactive) and the GI50 (MOLT-4) was > 100 µM (inactive). The GI50 (Malme-3M) was > 100 µM (inactive), the GI50 (NCI-H23) was > 100 µM (inactive) and the GI50 (NCI-H460) was > 100 µM (inactive). For the same compound, the GI50 (NCI-H522) was > 100 µM (inactive), the GI50 (OVCAR-3) was > 100 µM (inactive) and the GI50 (OVCAR-4) was > 100 µM (inactive). The GI50 (OVCAR-5) was > 100 µM (inactive), the GI50 (OVCAR-8) was > 100 µM (inactive) and the GI50 (RPMI-8226) was > 100 µM (inactive). For the same compound, the GI50 (RXF 631) was > 100 µM (inactive), the GI50 (SF-268) was > 100 µM (inactive) and the GI50 (SF-295) was > 100 µM (inactive). The GI50 (SF-539) was > 100 µM (inactive), the GI50 (SK-MEL-28) was > 100 µM (inactive) and the GI50 (SK-MEL-2) was > 100 µM (inactive). For the same compound, the GI50 (SK-MEL-5) was > 100 µM (inactive), the GI50 (SK-OV-3) was > 100 µM (inactive) and the GI50 (SN12C) was > 100 µM (inactive). The GI50 (SNB-19) was > 100 µM (inactive), the GI50 (SNB-75) was 61.2 µM (inactive) and the GI50 (SNB-78) was > 100 µM (inactive). The GI50 (SW-620) was > 100 µM (inactive), the GI50 (TK-10) was > 100 µM (inactive) and the GI50 (U-251) was > 100 µM (inactive). The GI50 (UACC-257) was > 100 µM (inactive), the GI50 (UACC-62) was > 100 µM (inactive) and the GI50 (UO-31) was > 100 µM (inactive). For the same compound, the GI50 (XF498) was > 100 µM (inactive).
With `CC(=O)c1cc2c3c(c1)c1cc4c(cc1c(=O)n3CC2)OCO4` the GI50 (786-0) was 13.4 µM (inactive), the GI50 (A549) was 40.1 µM (inactive) and the GI50 (ACHN) was 16.9 µM (inactive). For the same compound, the GI50 (CAKI-1) was 20.8 µM (inactive), the GI50 (CCRF-CEM) was 11.9 µM (inactive) and the GI50 (COLO 205) was 29.6 µM (inactive). For the same compound, the GI50 (DLD-1) was 15.2 µM (inactive), the GI50 (DMS-114) was 37.7 µM (inactive) and the GI50 (DMS-273) was 7 µM (inactive). For the same compound, the GI50 (EKVX) was 46.2 µM (inactive), the GI50 (HCC 2998) was > 100 µM (inactive) and the GI50 (HCT-116) was 4.71 µM (inactive). The GI50 (HCT-15) was 19.8 µM, the GI50 (HL-60) was 39.3 µM (inactive) and the GI50 (HOP-18) was 13.5 µM (inactive). For the same compound, the GI50 (HOP-62) was 44.5 µM (inactive), the GI50 (HOP-92) was 54.8 µM (inactive) and the GI50 (HT-29) was 19.4 µM (inactive). The GI50 (IGROV-1) was 28.8 µM (inactive), the GI50 (K562) was 18.1 µM (inactive) and the GI50 (KM-20L2) was 23.7 µM (inactive). For the same compound, the GI50 (KM12) was 8.63 µM (inactive), the GI50 (LOX IMVI) was 13.9 µM (inactive) and the GI50 (LXFL 529) was 10.4 µM (inactive). For the same compound, the GI50 (M14) was 59.7 µM (inactive), the GI50 (M19-MEL) was 34 µM (inactive) and the GI50 (MOLT-4) was 2.92 µM (inactive). The GI50 (Malme-3M) was 23.3 µM (inactive), the GI50 (NCI-H226) was > 100 µM (inactive) and the GI50 (NCI-H23) was 75.5 µM (inactive). For the same compound, the GI50 (NCI-H460) was 11.2 µM (inactive), the GI50 (NCI-H522) was 7.21 µM (inactive) and the GI50 (OVCAR-3) was 33.8 µM (inactive). The GI50 (OVCAR-4) was 25.8 µM (inactive), the GI50 (OVCAR-5) was 78.7 µM (inactive) and the GI50 (OVCAR-8) was 8.3 µM (inactive). For the same compound, the GI50 (RPMI-8226) was 17.6 µM (inactive), the GI50 (RXF 393) was 32.4 µM (inactive) and the GI50 (RXF 631) was 21.5 µM (inactive). The GI50 (SF-295) was 26.9 µM (inactive), the GI50 (SF-539) was 32.6 µM (inactive) and the GI50 (SK-MEL-28) was 65.3 µM (inactive). For the same compound, the GI50 (SK-MEL-2) was > 100 µM (inactive), the GI50 (SK-MEL-5) was 31 µM (inactive) and the GI50 (SK-OV-3) was > 100 µM (inactive). The GI50 (SN12C) was 16.8 µM (inactive), the GI50 (SNB-19) was 28.5 µM (inactive) and the GI50 (SNB-75) was 34.4 µM (inactive). For the same compound, the GI50 (SNB-78) was > 100 µM (inactive), the GI50 (SR) was 4.32 µM (inactive) and the GI50 (SW-620) was 7.78 µM (inactive). For the same compound, the GI50 (TK-10) was 21.2 µM (inactive), the GI50 (U-251) was 27 µM (inactive) and the GI50 (UACC-257) was 26.7 µM (inactive). The GI50 (UACC-62) was 17.3 µM (inactive), the GI50 (UO-31) was 8.11 µM (inactive) and the GI50 (XF498) was > 100 µM (inactive).
